Results as given in ChEMBL document CHEMBL1764977, “Anti-tumor and anti-leishmanial evaluations of 1,3,4-oxadiazine, pyran derivatives derived from cross-coupling reactions of β-bromo-6H-1,3,4-oxadiazine derivatives” (2011).

Tests used:
Type in all cases: functional
[1] = test system: MCF7; test: Growth inhibition of human MCF7 cells after 48 hrs by sulforhodamine B assay; conditions: MCF7, 48 h
[2] = test system: NCI-H460; test: Growth inhibition of human NCI-H460 cells after 48 hrs by sulforhodamine B assay; conditions: NCI-H460, 48 h
[3] = test system: SF-268; test: Growth inhibition of human SF268 cells after 48 hrs by sulforhodamine B assay; conditions: SF-268, 48 h
[4] = test system: Leishmania donovani; test: Antileishmanial activity against Leishmania donovani axenic amastigotes infected in human THP1 cells assessed as growth inhibition at 50 uM; conditions: THP-1, read-out: GI
[5] = test system: THP-1; test: Growth inhibition of human THP1 cells after 48 hrs by sulforhodamine B assay; conditions: THP-1, 48 h

Row | Compound | GI50 [1] | GI50 [2] | GI50 [3] | inhibition of growth at 50 µM [4] | GI50 [5]
1 | N#CCC(=O)N/N=C(/CBr)c1ccc(Br)cc1 | 40.6 µM | 10 µM | 12.8 µM | 20% | 
2 | N#CCC(=O)N/N=C(/CBr)c1ccc([N+](=O)[O-])cc1 | 18.4 µM | 10.3 µM | 14 µM | 35% | 
3 | N#CCC1=NN=C(c2ccc(Br)cc2)CO1 | 1.5 µM | 0.9 µM | 10.3 µM | 26% | 
4 | N#CCC1=NN=C(c2ccc([N+](=O)[O-])cc2)CO1 | 0.001 µM | 0.002 µM | 1.8 µM | 44% | 
5 | N#CCC1=NN=C(c2ccc(Br)cc2)C(Br)O1 (stereo not given) | 70.7 µM | 38.2 µM | 32 µM | 40% | 
6 | N#CCC1=NN=C(c2ccc([N+](=O)[O-])cc2)C(Br)O1 (stereo not given) | 10.6 µM | 8.5 µM | 6.7 µM | 58% | 22 µM
7 | N#CCC1=NN=C(c2ccc(Br)cc2)C(CC(=O)c2ccc(Br)cc2)O1 (stereo not given) | 30.4 µM | 22.1 µM | 16.9 µM | 48% | 
8 | N#CCC1=NN=C(c2ccc(Br)cc2)C(CC(=O)c2ccc([N+](=O)[O-])cc2)O1 (stereo not given) | 32 µM | 23 µM | 18.5 µM | 60% | 20 µM
9 | N#CCC1=NN=C(c2ccc([N+](=O)[O-])cc2)C(CC(=O)c2ccc(Br)cc2)O1 (stereo not given) | 36 µM | 40 µM | 16.5 µM | 73% | 
10 | N#CCC1=NN=C(c2ccc([N+](=O)[O-])cc2)C(CC(=O)c2ccc([N+](=O)[O-])cc2)O1 (stereo not given) | 1.6 µM | 2.6 µM | 2 µM | 88% | 33 µM
11 | N#CCC1=C(C#N)CC(c2ccc(Br)cc2)=C(CC(=O)c2ccc(Br)cc2)O1 | 12 µM | 10.4 µM | 8.2 µM | 60% | 
12 | N#CCC1=C(C#N)CC(c2ccc(Br)cc2)=C(CC(=O)c2ccc([N+](=O)[O-])cc2)O1 | 0.09 µM | 0.01 µM | 0.003 µM | 90% | 12.9 µM
13 | N#CCC1=C(C#N)CC(c2ccc([N+](=O)[O-])cc2)=C(CC(=O)c2ccc(Br)cc2)O1 | 4.9 µM | 3.6 µM | 2.8 µM | 82% | 26 µM
14 | N#CCC1=C(C#N)CC(c2ccc([N+](=O)[O-])cc2)=C(CC(=O)c2ccc([N+](=O)[O-])cc2)O1 | 0.03 µM | 0.08 µM | 0.005 µM | 98% | 10.2 µM
15 | C[C@@H]1[C@H](O)[C@@H](C)/C=C/C=C/C=C/C=C/C=C/C=C/C=C/[C@H](O[C@@H]2O[C@H](C)[C@@H](O)[C@H](N)[C@@H]2O)C[C@@H]2O[C@](O)(C[C@@H](O)C[C@@H](O)[C@H](O)CC[C@@H](O)C[C@@H](O)CC(=O)O[C@H]1C)C[C@H](O)[C@H]2C(=O)O [AMPHOTERICIN B] |  |  |  | 95% | 
16 | COc1cccc2c1C(=O)c1c(O)c3c(c(O)c1C2=O)C[C@@](O)(C(=O)CO)C[C@@H]3O[C@H]1C[C@H](N)[C@H](O)[C@H](C)O1 [DOXORUBICIN] |  | 0.094 µM | 0.094 µM |  | 
